Strand notation (5' to 3'): a small letter for the sugar, then the base; units joined by * are phosphorothioate-linked, units joined directly phosphodiester-linked; [ ] holds rarer units or linkages, { } end groups; capitals alone tell only the bases. k = constrained ethyl (cEt); [5mC] = 5-methylcytosine; d = 2'-deoxy (DNA)
What was measured:
human SMAD7 mRNA [1] = experiment: Antisense inhibition of human SMAD7 mRNA expression in Hep3B cells by 3-10-3 cEt gapmers, 10,000 nM, electroporation (Example 2); format: cell-based; details: approximately 24 hours; for % inhibition of SMAD7 mRNA expression: electroporation, 10,000 nM antisense oligonucleotide, RTS5062, relative to untreated control cells
In short: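 SMAD7 mRNA was measured by real-time PCR (RTS5062) with RiboGreen total-RNA normalization, about 24 h after 10,000 nM gapmer was delivered by electroporation into Hep3B cells at 20,000 per well. Gapmers were 16-mer 3-10-3 cEt, fully phosphorothioate; values are % inhibition versus untreated controls.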

human SMAD7 mRNA [2] = experiment: Dose-dependent inhibition of human SMAD7 mRNA expression in Hep3B cells (Example 3, Study 1 and 2); format: cell-based; details: electroporation; for % inhibition of SMAD7 mRNA expression: approximately 16 hours; for IC50: Study 2 (740-20000 nM)
In short: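 Hep3B cells, 20,000 per well, electroporated with antisense oligonucleotide at 0.31, 1.25, 5.00 or 20.00 μM (first series) or 0.74, 2.22, 6.67 or 20.00 μM (second series). After ~16 h, SMAD7 mRNA measured by RT-qPCR (RTS5062), normalised to RIBOGREEN total RNA. Percent inhibition vs untreated cells; IC50 derived.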

[3] = Hep3B cells, electroporation with 10,000 nM antisense oligonucleotide, RTS5062, percent inhibition of SMAD7 mRNA relative to untreated control cells
[4] = 740 nM, Study 2, relative to untreated control cells
[5] = Hep3B cells, 10,000 nM antisense oligonucleotide, electroporation, RT-PCR primer probe set RTS5062, relative to untreated control cells
[6] = Hep3B cells, electroporation with 10,000 nM antisense oligonucleotide, SMAD7 mRNA by RT-PCR (RTS5062), relative to untreated control cells

Row | Substance | % Inhibition (human SMAD7 mRNA [1]; [3]) [%] | % inhibition of SMAD7 mRNA expression (human SMAD7 mRNA [2]; [4]) [%] | % inhibition of SMAD7 mRNA expression (human SMAD7 mRNA [2]; 2220 nM, Study 2) [%] | % inhibition of SMAD7 mRNA expression (human SMAD7 mRNA [2]; 6670.0 nM, Study 2) [%] | % inhibition of SMAD7 mRNA expression (human SMAD7 mRNA [2]; 20000.0 nM, Study 2) [%] | IC50 (human SMAD7 mRNA [2]) [µM] | % inhibition of SMAD7 mRNA expression (human SMAD7 mRNA [1]; Hep3B cells) [%] | % Inhibition (human SMAD7 mRNA [1]; [5]) [%] | % Inhibition (human SMAD7 mRNA [1]; [6]) [%]
1 | 799708 (antisense k[5mC]*kA*kA*dA*d[5mC]*dT*dT*dG*dT*dG*dG*dT*dA*kA*kA*kA) [compound 799708] | 60 | 15 | 35 | 52 | 79 | 11 | – | – | –
2 | 799709 (antisense kT*k[5mC]*kA*dA*dA*d[5mC]*dT*dT*dG*dT*dG*dG*dT*kA*kA*kA) [compound 799709] | 60 | 0 | 27 | 36 | 62 | 7 | – | – | –
3 | 799711 (antisense kG*kG*kT*d[5mC]*dA*dA*dA*d[5mC]*dT*dT*dG*dT*dG*kG*kT*kA) [compound 799711] | 60 | 36 | 47 | 51 | 54 | 5 | – | – | –
4 | 799712 (antisense kA*kT*kA*dG*dA*dT*dT*dA*dT*d[5mC]*d[5mC]*dA*dA*kG*kT*kA) [compound 799712] | – | 27 | 45 | 55 | 63 | 3 | 70 | – | –
5 | 799718 (antisense k[5mC]*kT*kG*d[5mC]*dT*dA*dG*dG*dG*dA*dT*dA*d[5mC]*kT*kG*kA) [compound 799718] | – | 23 | 52 | 66 | 72 | 4 | 65 | – | –
6 | 799722 (antisense kG*k[5mC]*kA*dG*dA*dG*dT*dG*dA*dG*dA*dA*d[5mC]*kA*kA*kG) [compound 799722] | 67 | 17 | 38 | 53 | 82 | 5 | – | – | –
7 | 799734 (antisense kT*k[5mC]*k[5mC]*d[5mC]*dA*dG*dG*dT*dG*dA*dA*d[5mC]*d[5mC]*k[5mC]*kA*k[5mC]) [compound 799734] | – | 8 | 44 | 64 | 67 | 8 | 45 | – | –
8 | 799743 (antisense k[5mC]*kT*kG*dG*dA*dG*dT*dT*dA*dT*dT*d[5mC]*dT*k[5mC]*kA*kA) [compound 799743] | 51 | 0 | 43 | 44 | 64 | 5 | – | – | –
9 | 799751 (antisense kG*kA*kG*d[5mC]*dT*dA*dA*dT*dG*dA*d[5mC]*dA*d[5mC]*kT*kG*kG) [compound 799751] | – | 11 | 35 | 69 | 65 | 10 | 60 | – | –
10 | 799753 (antisense k[5mC]*kG*kT*dG*dA*dG*dT*dA*dA*dA*dT*dT*d[5mC]*kT*kT*kA) [compound 799753] | – | 0 | 33 | 32 | 66 | 4 | 69 | – | –
11 | 799755 (antisense kG*kA*kA*dA*dG*dT*dT*dA*d[5mC]*dA*dG*dA*dA*k[5mC]*kT*k[5mC]) [compound 799755] | – | 13 | 44 | 66 | 75 | 6 | 77 | – | –
12 | 799759 (antisense kA*k[5mC]*k[5mC]*dA*dT*dA*dT*d[5mC]*dA*d[5mC]*dT*d[5mC]*d[5mC]*kT*kT*k[5mC]) [compound 799759] | – | 22 | 44 | 45 | 66 | 2 | 66 | – | –
13 | 799781 (kG*kT*k[5mC]*dA*dA*dT*dA*d[5mC]*dA*dT*dA*dT*dT*kT*kG*k[5mC]; antisense) [compound 799781] | 66 | 23 | 75 | 72 | 92 | > 20 | – | – | –
14 | 799787 (k[5mC]*k[5mC]*kA*dA*dA*dG*d[5mC]*dA*dG*dA*dA*dG*dT*kA*kG*kA; antisense) [compound 799787] | 58 | 0 | 9 | 35 | 41 | 18 | – | – | –
15 | 799791 (kG*kG*kG*dA*dG*dA*d[5mC]*d[5mC]*dT*dA*d[5mC]*d[5mC]*dT*k[5mC]*kT*kG; antisense) [compound 799791] | – | 11 | 4 | 29 | 60 | 6 | 56 | – | –
16 | 799808 (antisense kG*k[5mC]*kT*dG*dA*dA*dA*dG*dA*dA*dA*dG*dT*k[5mC]*k[5mC]*k[5mC]) [compound 799808] | 70 | 8 | 33 | 52 | 73 | 10 | – | – | –
17 | 799851 (kA*kA*kG*dT*dG*dT*d[5mC]*d[5mC]*dA*dT*d[5mC]*dA*dA*kG*k[5mC]*kA; antisense) [compound 799851] | – | 15 | 36 | 46 | 57 | 2 | – | 70 | –
18 | 799854 (kG*k[5mC]*k[5mC]*dA*dA*dG*dT*dG*dT*d[5mC]*d[5mC]*dA*dT*k[5mC]*kA*kA; antisense) [compound 799854] | – | 21 | 56 | 80 | 79 | 5 | – | 45 | –
19 | 799858 (kG*kT*kA*dA*dT*dT*dT*dA*dG*d[5mC]*dA*dA*dT*kT*k[5mC]*k[5mC]; antisense) [compound 799858] | – | 18 | 43 | 48 | 71 | 2 | – | 64 | –
20 | 799878 (kG*k[5mC]*k[5mC]*d[5mC]*d[5mC]*d[5mC]*d[5mC]*dT*d[5mC]*d[5mC]*d[5mC]*d[5mC]*dG*kT*kG*k[5mC]; antisense) [compound 799878] | – | 35 | 64 | 68 | 84 | 17 | – | 70 | –
21 | 799904 (antisense kA*k[5mC]*kT*d[5mC]*dA*dG*dA*dG*d[5mC]*dA*dG*d[5mC]*dT*k[5mC]*kT*k[5mC]) [compound 799904] | – | 3 | 9 | 23 | 62 | 8 | – | – | 61
22 | 799921 (antisense k[5mC]*kT*kA*dA*dT*dT*dA*dG*dT*dG*dA*d[5mC]*dT*kG*kT*kG) [compound 799921] | – | 10 | 35 | 55 | 58 | 11 | – | – | 75
23 | 799964 (antisense k[5mC]*k[5mC]*k[5mC]*d[5mC]*dT*dT*dA*dG*d[5mC]*dG*d[5mC]*dA*dT*kT*k[5mC]*kT) [compound 799964] | – | 4 | 15 | 46 | 61 | > 20 | – | – | 55
24 | 799967 (kG*kA*k[5mC]*dG*dA*dT*dG*dA*dA*dT*d[5mC]*d[5mC]*dT*kG*kG*k[5mC]; antisense) [compound 799967] | – | 0 | 0 | 0 | 20 | 9 | – | – | 72

— patent US10517889B2, “Modulators of SMAD7 expression” (Ionis Pharmaceuticals, Inc., priority 2017, dated 2019)
